Test results from patent US20120083522A1, “MODULATION OF INFLAMMATORY RESPONSES BY FACTOR XI” (Isis Pharmaceuitcals, inc., priority 2009, published 2012).
In the oligonucleotide strings, read from the 5' end, every base follows the letter of its sugar. An asterisk marks phosphorothioate; unmarked linkages are phosphodiester. Other units and linkages are bracketed, terminal groups are in braces. A string of capitals states the bases alone. e = 2'-O-(2-methoxyethyl) (MOE); [5mC] = 5-methylcytosine; d = 2'-deoxy (DNA)

Tests used:
[1] = parameters: species or system Sprague-Dawley rats; conditions: rat, in vivo, sc, 20 mg/kg
Procedure: The concentration of the full-length oligonucleotide as well as the total oligonucleotide concentration (including the degraded form) was measured. The method used is a modification of previously published methods (Leeds et al., 1996; Geary et al., 1999) which consist of a phenol-chloroform (liquid-liquid) extraction followed by a solid phase extraction. An internal standard (ISIS 355868, a 27-mer 2′-O-methoxyethyl modified phosphorothioate oligonucleotide, […], designated herein as SEQ ID NO: 270) was added prior to extraction. […] The results are presented in Tables 98 and 99, expressed as μg/g liver or kidney tissue.

[2] = test system: human Factor XI mRNA; experiment: Antisense inhibition in HepG2 cells by microwalk gapmers, 8,000 nM, electroporation (Example 14); assay type: cell-based; conditions: HepG2 cells, 8,000 nM
Summary of the method: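 HepG2 cells electroporated with 8,000 nM 2′-MOE phosphorothioate gapmer (5-10-5, 5-8-5 or 6-8-6). Factor XI mRNA measured after ~24 h by qRT-PCR, normalised to RIBOGREEN total RNA. Reported as percent inhibition versus untreated cells.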

[3] = test system: human Factor XI mRNA; experiment: Antisense inhibition in HepG2 cells by microwalk gapmers, 75 nM, lipofectin (Example 3); assay type: cell-based; conditions: HepG2 cells, 75 nM, oligonucleotides targeted to nucleobases 1275 to 1318 of SEQ ID NO: 1
Summary of the method: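 HepG2 cells (10,000 per well) were transfected with 75 nM gapmer using lipofectin and treated for about 24 h. Factor XI mRNA was quantified by real-time PCR, normalized to RiboGreen total RNA and expressed as percent inhibition versus untreated controls.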

[4] = test system: Factor XI protein; experiment: Cynomolgus monkeys: plasma Factor XI protein ELISA (Example 29); assay type: in vivo; conditions: for Inhibition of Factor XI protein relative to the PBS control: escalating doses 5, 10, 25 mg/kg s.c.
Procedure: (§1) Groups, each consisting of two male and three female monkeys, were injected subcutaneously with ISIS 416838, ISIS 416850, ISIS 416858, ISIS 416864, or ISIS 417002 in escalating doses. Antisense oligonucleotide was administered to the monkeys at 5 mg/kg three times per a week for week 1; 5 mg/kg twice per week for weeks 2 and 3; 10 mg/kg three times per week for week 4; 10 mg/kg twice per week for weeks 5 and 6; 25 mg/kg three times per week for week 7; and 25 mg/kg twice per week for weeks 8, 9, 10, 11, and 12. One control group, consisting of two male and three female monkeys, was injected subcutaneously with PBS according to the same dosing regimen. An additional experimental group, consisting of two male and three female monkeys, was injected subcutaneously with ISIS 416850 in a chronic, lower dose regimen. Antisense oligonucleotide was administered to the monkeys at 5 mg/kg three times per week for week 1; 5 mg/kg twice per week for week 2 and 3; 10 mg/kg three times per week for week 4; and 10 mg/kg twice per week for weeks 5 to 12. Body weights were measured weekly. Blood samples were collected 14 days and 5 days before the start of treatment and subsequently once per week for Factor XI protein activity analysis in plasma and measurement of various hematologic factors. On day 85, the monkeys were euthanized by exsanguination while under deep anesthesia, and organs harvested for further analysis.
(§2) Plasma samples from all monkey groups taken on different days were analyzed by a sandwich-style ELISA assay (Affinity Biologicals Inc.) using an affinity-purified polyclonal anti-Factor XI antibody as the capture antibody and a peroxidase-conjugated polyclonal anti-Factor XI antibody as the detecting antibody. Monkey plasma was diluted 1:50 for the assay. Peroxidase activity was expressed by incubation with the substrate o-phenylenediamine. The color produced was quantified using a microplate reader at 490 nm and was considered to be proportional to the concentration of Factor XI in the samples.
The results are presented in Table 122, expressed as percentage reduction relative to that of the PBS control.

[5] = Cynomolgus monkeys: body and organ weights (Example 29); assay type: in vivo; conditions: for Body weight: escalating doses 5, 10, 25 mg/kg s.c.
Procedure: as §1
Body weights were taken once weekly throughout the dosing regimen. […] Organ weights were taken after the animals were euthanized and livers, kidneys and spleens were harvested and weighed. […] The ISIS oligonucleotide, ISIS 416850, given with the chronic dose regimen is distinguished from the other oligonucleotides with an asterisk (*).

[6] = Cynomolgus monkeys: hematology assays (Example 29); assay type: in vivo
Procedure: as §1
The ISIS oligonucleotide, ISIS 416850, given with the chronic dose regimen is distinguished from the other oligonucleotides with an asterisk (*).

[7] = test system: Factor XI mRNA; experiment: Cynomolgus monkeys, 25 mg/kg: liver Factor XI RNA analysis (Example 30); assay type: in vivo; conditions: cynomolgus monkeys, day 55, in comparison to the PBS control
Procedure: (§3) Groups, each consisting of two male and two female monkeys, were injected subcutaneously with 25 mg/kg of ISIS 416850, ISIS 449709, ISIS 445522, ISIS 449710, ISIS 449707, ISIS 449711, ISIS 449708, 416858 and ISIS 445531. Antisense oligonucleotide was administered to the monkeys at 25 mg/kg three times per week for week 1 and 25 mg/kg twice per week for weeks 2 to 8. A control group, consisting of two male and two female monkeys was injected subcutaneously with PBS according to the same dosing regimen. Body weights were taken 14 days and 7 days before the start of treatment and were then measured weekly throughout the treatment period. Blood samples were collected 14 days and 5 days before the start of treatment and subsequently several times during the dosing regimen for measurement of various hematologic factors. On day 55, the monkeys were euthanized by exsanguination while under deep anesthesia, and organs harvested for further analysis.
On day 55, RNA was extracted from liver tissue for real-time PCR analysis of Factor XI using primer probe set LTS00301. Results are presented as percent inhibition of Factor XI, relative to PBS control.

[8] = test system: IL-1β, IL-6, IFN-γ, TNF-α, IL-8, MIP-1α, MCP-1, MIP-10, RANTES; experiment: Cynomolgus monkeys: cytokine and chemokine assays (Example 30); assay type: in vivo
Procedure: as §3
Blood samples obtained from all monkey groups were sent to Pierce Biotechnology (Woburn, Mass.) for measurements of chemokine and cytokine levels. Levels of IL-1β, IL-6, IFN-γ, and TNF-α were measured using the respective primate antibodies and levels of IL-8, MIP-1α, MCP-1, MIP-10 and RANTES were measured using the respective cross-reacting human antibodies. Measurements were taken 14 days before the start of treatment and on day 55, when the monkeys were euthanized.

[9] = test system: Factor XI protein; experiment: Cynomolgus monkeys: plasma Factor XI protein ELISA (Example 30); assay type: in vivo; conditions: cynomolgus monkeys, Example 30
Procedure: as §3, §2
The results are presented in Table 148, expressed as percentage reduction relative to that of the PBS control.

[10] = Tolerability in CD1 mice: body and organ weight (Example 25); assay type: in vivo; conditions: 50 mg/kg s.c. twice per week for 6 weeks; for Kidney weight as percentage of body weight / Liver weight as percentage of body weight / Spleen weight as percentage of body weight: end of study
[11] = day −14 (before start of treatment)

416848 (antisense CACAGTTTCTGGCAGGCCTC; 5-10-5 gapmer, wing sugar chemistry not given here, further chemistry not given here) [compound 416848]
Half-life in the liver and kidney [1]: 24 days
Percent inhibition of human Factor XI mRNA levels [2]: 87%
% inhibition of human Factor XI mRNA levels [3]: 86%

416852 (antisense TGGTGCACAGTTTCTGGCAG; 5-10-5 gapmer, wing sugar chemistry not given here, further chemistry not given here) [compound 416852]
Half-life in the liver and kidney [1]: 28 days
Percent inhibition of human Factor XI mRNA levels [2]: 87%
% inhibition of human Factor XI mRNA levels [3]: 84%

ISIS 416858: gapmer of Table 8 (antisense eA*e[5mC]*eG*eG*e[5mC]*dA*dT*dT*dG*dG*dT*dG*d[5mC]*dA*d[5mC]*eA*eG*eT*eT*eT)
Factor XI protein levels (in words) ([4]; Example 29): time-dependent decrease in protein levels
Inhibition of Factor XI protein relative to the PBS control ([4]; day 8): 6%
Inhibition of Factor XI protein relative to the PBS control ([4]; day 15): 16%
Inhibition of Factor XI protein relative to the PBS control ([4]; day 22): 23%
Inhibition of Factor XI protein relative to the PBS control ([4]; day 29): 28%
Inhibition of Factor XI protein relative to the PBS control ([4]; day 36): 35%
Inhibition of Factor XI protein relative to the PBS control ([4]; day 43): 39%
Inhibition of Factor XI protein relative to the PBS control ([4]; day 50): 49%
Inhibition of Factor XI protein relative to the PBS control ([4]; day 57): 60%
Inhibition of Factor XI protein relative to the PBS control ([4]; day 64): 68%
Inhibition of Factor XI protein relative to the PBS control ([4]; day 71): 71%
Inhibition of Factor XI protein relative to the PBS control ([4]; day 78): 73%
Inhibition of Factor XI protein relative to the PBS control ([4]; day 85): 78%
Inhibition of Factor XI protein relative to the PBS control ([4]; day −5 (before treatment)): 0%
Inhibition of Factor XI protein relative to the PBS control ([4]; day −14 (before treatment)): 0%
spleen weight (in words) ([5]; Example 29): increase in spleen weight
Kidney weight ([5]; after euthanasia): 13 g
Liver weight ([5]; after euthanasia): 60 g
Spleen weight ([5]; after euthanasia): 12 g
Body weight ([5]; day 1): 2912 g
Body weight ([5]; day 8): 2740 g
Body weight ([5]; day 15): 2760 g
Body weight ([5]; day 22): 2800 g
Body weight ([5]; day 29): 2763 g
Body weight ([5]; day 36): 2584 g
Body weight ([5]; day 43): 2607 g
Body weight ([5]; day 50): 2646 g
Body weight ([5]; day 57): 2617 g
Body weight ([5]; day 64): 2618 g
Body weight ([5]; day 71): 2865 g
Body weight ([5]; day 78): 2713 g
platelet count ([6]; day 8): 391000 µL⁻¹
platelet count ([6]; day 15): 400000 µL⁻¹
platelet count ([6]; day 22): 316000 µL⁻¹
platelet count ([6]; day 29): 336000 µL⁻¹
platelet count ([6]; day 36): 371000 µL⁻¹
platelet count ([6]; day 43): 342000 µL⁻¹
platelet count ([6]; day 50): 331000 µL⁻¹
platelet count ([6]; day 57): 333000 µL⁻¹
platelet count ([6]; day 64): 295000 µL⁻¹
platelet count ([6]; day 71): 286000 µL⁻¹
platelet count ([6]; day 78): 262000 µL⁻¹
platelet count ([6]; day 85): 267000 µL⁻¹
platelet count ([6]; day −5): 463000 µL⁻¹
platelet count ([6]; day −14): 419000 µL⁻¹
Factor XI mRNA in liver (in words) [7]: significant reduction of Factor XI mRNA
IL-1β level ([8]; 25 mg/kg s.c., day 55): 28 pg/mL
MIP-1β level ([8]; 25 mg/kg s.c., day 55): 47 pg/mL
IL-1β level [8, 11]: 103 pg/mL
MIP-1β level [8, 11]: 37 pg/mL
Factor XI protein levels (in words) [9]: time-dependent decrease in protein levels

ISIS 445522: microwalk gapmer of Table 51 (antisense eG*e[5mC]*eA*e[5mC]*eA*dG*dT*dT*dT*d[5mC]*dT*dG*dG*e[5mC]*eA*eG*eG*e[5mC])
Body weight (increase over PBS control weight before start of treatment) [10]: 11 g
Kidney weight as percentage of body weight [10]: 1.7%
Liver weight as percentage of body weight [10]: 6%
Spleen weight as percentage of body weight [10]: 0.4%
Factor XI mRNA in liver (in words) [7]: significant reduction of Factor XI mRNA
IL-1β level ([8]; 25 mg/kg s.c., day 55): 341 pg/mL
MIP-1β level ([8]; 25 mg/kg s.c., day 55): 63 pg/mL
IL-1β level [8, 11]: 188 pg/mL
MIP-1β level [8, 11]: 27 pg/mL
Factor XI protein levels (in words) [9]: time-dependent decrease in protein levels

ISIS 445531: microwalk gapmer of Table 51 (antisense eG*eG*e[5mC]*eA*eT*dT*dG*dG*dT*dG*d[5mC]*dA*d[5mC]*eA*eG*eT*eT*eT)
Body weight (increase over PBS control weight before start of treatment) [10]: 10 g
Kidney weight as percentage of body weight [10]: 1.5%
Liver weight as percentage of body weight [10]: 6%
Spleen weight as percentage of body weight [10]: 0.5%
Factor XI mRNA in liver (in words) [7]: significant reduction of Factor XI mRNA
IL-1β level ([8]; 25 mg/kg s.c., day 55): 155 pg/mL
MIP-1β level ([8]; 25 mg/kg s.c., day 55): 84 pg/mL
IL-1β level [8, 11]: 101 pg/mL
MIP-1β level [8, 11]: 22 pg/mL

ISIS 449709: microwalk gapmer of Table 53 (antisense eG*e[5mC]*eA*e[5mC]*dA*dG*dT*dT*dT*d[5mC]*dT*dG*dG*d[5mC]*eA*eG*eG*e[5mC])
Factor XI mRNA in liver (in words) [7]: significant reduction of Factor XI mRNA
IL-1β level ([8]; 25 mg/kg s.c., day 55): 181 pg/mL
MIP-1β level ([8]; 25 mg/kg s.c., day 55): 47 pg/mL
IL-1β level [8, 11]: 137 pg/mL
MIP-1β level [8, 11]: 14 pg/mL
Factor XI protein levels (in words) [9]: time-dependent decrease in protein levels

ISIS 449710: microwalk gapmer of Table 53 (antisense e[5mC]*eA*e[5mC]*dA*dG*dT*dT*dT*d[5mC]*dT*dG*dG*d[5mC]*eA*eG*eG)
Factor XI mRNA in liver (in words) [7]: significant reduction of Factor XI mRNA
IL-1β level ([8]; 25 mg/kg s.c., day 55): 286 pg/mL
MIP-1β level ([8]; 25 mg/kg s.c., day 55): 53 pg/mL
IL-1β level [8, 11]: 271 pg/mL
MIP-1β level [8, 11]: 18 pg/mL
